Experimental data taken from paper PMC4105520, “Effects of a novel cyclic RGD peptidomimetic on cell proliferation, migration and angiogenic activity in human endothelial cells” (Vascular Cell, 2014).

Experiments:
[1] = in the same or very close concentration range as the anti-angiogenic activity; cited from earlier work
Experimental: In our experiments, the effects of cyclo[DKP-RGD] 1 on HUVEC activity were tested in resting conditions as well as in the presence of a culture medium enriched with growth factors known to promote angiogenesis such as VEGF, EGF, IGF-I and FGF2 or after addition of the pro-inflammatory chemokine IL-8, which has a key role in the regulation of pathological angiogenesis. According to our results, cyclo[DKP-RGD]

ovarian carcinoma SKOV3 = details: cited from earlier work
human osteosarcoma U2-OS = details: cited from earlier work
HUVEC [2] = test system: HUVEC
HUVEC [3] = assay: Angiogenesis assay, network formation on Matrigel; assay type: cell-based, human; details: 5 h
Experimental: To assess angiogenic activity, HUVEC 2.5×10^4 cells were seeded in a 24-well plate coated with 100 μl/well of Matrigel previously polymerized for 1 h at 37°C. […] 1 under either resting or stimulated conditions. In some experiments IL-8 (10 nM) was used as pro-angiogenic stimulus. Network formation was evaluated by phase‒contrast microscopy using a fluorescence microscope (Axiovert 40CFL, Carl Zeiss S.p.A. Milan, Italy). Network formation was finally quantified in terms of mean number of loops per field as topological parameters and the total length of the branches. For the purpose of the analysis, loops were defined as any complete ring formed by HUVEC, while open ramifications were considered as branches. The total branch length (pixels) and the number of loops were quantified using the ImageJ image analysis software (http://rsbweb.nih.gov/ij/).

HUVEC [4] = assay: Proliferation assay, ELISA of BrdU incorporation; assay type: cell-based, human; details: 24 h, data not shown
Experimental: To assess HUVEC proliferation, 1×10^4 cells were seeded in duplicate in a 96-well plate and cultured for 24 h without or with cyclo[DKP-RGD] 1 at different concentrations. Proliferation was then measured by a colorimetric immunoassay, based on the ELISA measurement of bromodeoxyuridine (BrdU) incorporation during DNA synthesis. The absorbance (ABS) of the samples was determined by means of a spectrophotometer (Model 680, Bio-Rad Laboratories, Hercules, CA, USA) with wavelength set at 450 nm, and finally expressed as the difference between BrdU positive and negative samples, expressed as Optical Density (O.D.).

[5] = test system: β5 integrin subunit mRNA in HUVEC; assay: Real time PCR, mRNA of integrin subunit β5; assay type: cell-based, human; details: 1 μM, 5 h, mean ± SD of 3 experiments; for β5 mRNA, 2^-Δct ×10^2: GAPDH housekeeping
Experimental: (§1) Cells were treated for 5 h in the presence or absence of 1 μM cyclo[DKP-RGD] 1 in different growth conditions, as previously described. At the end of the treatment, RNA extraction was performed using the Qiazol lysis reagent. Primers were designed by using the “Primer3 input” software (http://frodo.wi.mit.edu/cgi-bin/primer3/primer3.cgi/primer3_www.cgi) and the specificity of each primer was controlled by the BLAST software (http://blast.ncbi.nlm.nih.gov) (Table 1). Real time PCR was performed as previously reported At the end of the reaction, a melting curve analysis was carried out to check for the presence of primer-dimers. Comparison of the expression of each gene was determined by using GAPDH as housekeeping gene. Each run was analyzed in duplicate and data are finally expressed as 2^-Δct.

[6] = test system: αv integrin subunit mRNA in HUVEC; assay: Real time PCR, mRNA of integrin subunit αv; assay type: cell-based, human; details: 1 μM, 5 h, mean ± SD of 3 experiments; for αv mRNA, 2^-Δct ×10^2: GAPDH housekeeping
Experimental: as §1

αvβ3 integrin = details: read-out: IC50, inhibition of vitronectin binding to αvβ3 integrin; cited from earlier work
Description: (§2) HUVEC represent a valid in vitro model which provides seminal insights into the cellular and molecular events leading to neovascularization in response to inflammation and hypoxia in cancer, ischemic events, and in embryogenesis. As anticipated in the introduction, integrins are key actors in angiogenesis and vascular homeostasis, acting as promoters of endothelial cell-matrix interactions. It has been recognized that pharmacological inhibition of the αvβ3 subtype suppresses angiogenesis in many experimental models and αvβ3 antagonists (i.e. antibodies, peptides and peptidomimeti ...

αvβ5 integrin = details: read-out: IC50, inhibition of vitronectin binding to αvβ5 integrin; cited from earlier work
Description: as §2

[7] = test system: human pancreatic carcinoma MIA-PaCa2; details: cited from earlier work
[8] = test system: β3 integrin subunit mRNA in HUVEC; assay: Real time PCR, mRNA of integrin subunit β3; assay type: cell-based, human; details: 1 μM, 5 h, mean ± SD of 3 experiments; for β3 mRNA, 2^-Δct ×10^2: GAPDH housekeeping
Experimental: as §1

[9] = test system: Akt phosphorylation in HUVEC; assay: Western blot analysis of Akt phosphorylation; assay type: cell-based, human; details: 5 h
Experimental: Cells grown in 60-mm dishes were treated for 5 h with 1 μM cyclo[DKP-RGD] 1. The cells were then rinsed twice in ice-cold PBS and 200 μl of the cell lysis buffer (composition: 50 mM Tris–HCl pH 7.4, 1% v/v NP40, 0.25% w/v sodium deoxycholate, 1 mM phenylmethylsulphonyl-fluoride, 1 mM Na3VO4, 1 mM EDTA, 30 mM sodium pyrophosphate, 1 mM NaF, 1 mg/ml leupeptin, 1 mg/ml pepstatin A, 1 mg/ml aprotinin and 1 mg/ml microcystin) was added to the dishes. After scraping, cells were sonicated for 10 s, centrifuged at 12000 g for 5 min at 4°C and the amount of proteins in the supernatant was measured using the BCA protein assay. For western blot analysis, 20 μg of proteins were separated by 10% SDS–PAGE at 150 V for 2 h and blotted onto […] nitrocellulose membranes at 90 mA for 16 h. The membranes were first blocked for 2 h in TRIS buffered saline solution (TBST, composition: TRIS 10 mM, NaCl 150 mM, 0.1% Tween 20) plus 5% low fat dry milk (TBSTM) and then incubated with the appropriate antibody diluted 1:1000 in TBSTM, for 16 h at 4°C under gentle agitation. The membranes were rinsed three times in TBST and then incubated for 2 h at 21°C with the secondary antibody diluted 1:10000 in TBSTM. Membranes were then rinsed three times in TBST and luminescence was detected by using the appropriate kit, and densitometric analysis was performed as previously reported.

HUVEC [10] = assay: Cell viability by flow cytometry, annexin V/PI staining; details: 24 h, mean ± SD, n = 4, P > 0.05 vs control
[11] = test system: human pancreatic carcinoma PANC-1; details: cited from earlier work
[12] = test system: ovarian carcinoma IGROV-1; details: cited from earlier work
HUVEC [13] = assay: Cell migration, Boyden chamber assay; assay type: cell-based, human; details: for effect on spontaneous migration / effect on stimulated migration: 5 h at 37°C; for effect on stimulated migration: VEGF, EGF, IGF-I and FGF2 in bottom chamber
Experimental: Cell migration was measured by means of a Boyden chamber assay. Briefly, 1×10^5 HUVEC were seeded in the top well of the Boyden chamber, cyclo[DKP-RGD] 1 was added in the bottom or in the top compartment, and a 3 μm-pore cellulose nitrate filter was placed between the two compartments. Stimulated migration was assessed by putting VEGF, EGF, IGF-I, and FGF2 in the bottom chamber. After an incubation period of 5 h at 37°C, the filter was recovered, dehydrated, fixed, and finally stained with hematoxylin. Migration into the filter was quantified by measuring the distance (in μm) from the surface of the filter to the leading front of cells using an optical microscope (Axiolab, Carl Zeiss S.p.A. Milan, Italy).

For “cyclo-[Arg-Gly-Asp-D-Phe-N(Me)-Val] (head to tail) [cilengitide]”, the cytotoxic activity [1] is listed as “exhibit cytotoxic activity”.
In the case of cyclo[DKP-RGD] [cyclo[DKP-RGD] 1], the cytotoxic effects (ovarian carcinoma SKOV3) is given as “lack of cytotoxic effects”, the cytotoxic effects (human osteosarcoma U2-OS) is given as “lack of cytotoxic effects” and the “effect on percentage of viable, early apoptotic, late apoptotic/necrotic or necrotic cells” value (HUVEC [2]) is given as “did not affect”. The “effect on angiogenesis induced by IL-8” value (HUVEC [3]; IL-8 10 nM, P < 0.01 vs control) was “significantly and profoundly decreased”, the “effect on angiogenesis (network formation: loops, branch length)” value (HUVEC [3]; basal conditions) was “did not significantly affect” and the “effect on angiogenesis induced by VEGF, EGF, IGF-I, and FGF2” value (HUVEC [3]; stimulated conditions, P < 0.01 vs control) was “significantly and profoundly decreased”. For the same substance, the “effect on basal proliferation (BrdU incorporation)” value (HUVEC [4]; basal conditions, up to 1×10^−5 M) was “did not significantly affect”, the “effect on stimulated proliferation (BrdU incorporation)” value (HUVEC [4]; with VEGF, EGF, IGF-I and FGF2, up to 1×10^−5 M) was “did not significantly affect” and the “β5 mRNA, 2^-Δct ×10^2” value ([5]; basal conditions) was 1.52 ± 1.34. For the same substance, the “β5 mRNA, Ratio vs Control” value ([5]; basal conditions) was 1.08 ± 0.07, the “β5 mRNA, 2^-Δct ×10^2” value ([5]; with VEGF, EGF, IGF, and FGF) was 1.31 ± 1.13 and the “β5 mRNA, Ratio vs Control” value ([5]; with VEGF, EGF, IGF, and FGF) was 1.34 ± 0.46. The “αv mRNA, 2^-Δct ×10^2” value ([6]; basal conditions) was 6.59 ± 5.24, the “αv mRNA, Ratio vs Control” value ([6]; basal conditions) was 1.32 ± 0.57 and the “αv mRNA, 2^-Δct ×10^2” value ([6]; with VEGF, EGF, IGF, and FGF) was 15.09 ± 10.66. The “αv mRNA, Ratio vs Control” value ([6]; with VEGF, EGF, IGF, and FGF) was 1.28 ± 0.42, the IC50 (αvβ3 integrin) was 4.5 ± 1.1 nM and the IC50 (αvβ5 integrin) was 149 ± 25 nM. The cytotoxic effects [7] was “lack of cytotoxic effects”, the “β3 mRNA, 2^-Δct ×10^2” value ([8]; basal conditions) was 0.91 ± 0.76 and the “β3 mRNA, Ratio vs Control” value ([8]; basal conditions) was 1.08 ± 0.27. For the same substance, the “β3 mRNA, 2^-Δct ×10^2” value ([8]; with VEGF, EGF, IGF, and FGF) was 1.41 ± 1.07, the “β3 mRNA, Ratio vs Control” value ([8]; with VEGF, EGF, IGF, and FGF) was 1.43 ± 0.35 and the “phosphorylated Akt, % of control” value ([9]; basal conditions, 1×10^−6 M, n = 3, P = 0.001) was 53.2 ± 7.9 % of control. For the same substance, the “phosphorylated Akt” value ([9]; basal conditions, 1×10^−6 M, n = 3, P = 0.001, control 16241.7 ± 1763.3) was 8702.7 ± 2008.7 optical density arbitrary units, the “phosphorylated Akt” value ([9]; with VEGF, EGF, IGF-I, and FGF2, 1×10^−6 M, n = 3, P = 0.735, control 15406.0 ± 1218.8) was 15174.7 ± 663.9 optical density arbitrary units and the “viable cells (ANX-/PI-)” value (HUVEC [10]; basal conditions, 1×10^−6 M) was 85.4 ± 3.4%. The “viable cells (ANX-/PI-)” value (HUVEC [10]; with VEGF, EGF, IGF-I and FGF2, 1×10^−6 M) was 86.8 ± 9.2%, the cytotoxic effects [11] was “lack of cytotoxic effects” and the cytotoxic effects [12] was “lack of cytotoxic effects”. For the same substance, the “concentration of the peak of the bell-shaped effect on migration” value (HUVEC [13]; Boyden chamber, not observed in the angiogenesis assay) was “about 1×10^−9 M”, the “effect on spontaneous migration” value (HUVEC [13]; compound in bottom chamber) was “increased” and the “effect on stimulated migration” value (HUVEC [13]; compound in bottom chamber) was “increased”. For the same substance, the “effect on spontaneous migration” value (HUVEC [13]; compound in top chamber together with cells) was “increased” and the “effect on stimulated migration” value (HUVEC [13]; compound in top chamber) was “decreased”.
